Tests used:
[1] = system: primary cilia; experiment: In vitro cilia length, immunocytochemistry (Example 2); type: cell-based, porcine; settings: 16 h of treatment
Description: Immunocytochemistry and confocal microscopy. For the in vitro cilia length measurements, cells were grown on the Formvar® polymer, as mentioned above. […] Fenoldopam-alone was also used as another control. […] An antibody against acetylated-α-tubulin (1:10,000 dilution, Sigma-Aldrich) and the secondary antibodies were also diluted in 10% FBS to decrease the background florescence; a FITC-conjugated secondary antibody (1:1000; Pierce) was used. Cells were then washed three times for 5 minutes each with cacodylate buffer and sealed with mounting media containing DAPI (Vector Laboratories). […] Images were processed using NIS-Elements High Content AR 4.30.02 (Nikon). Automated image acquisition (ND acquisition) was conducted under the same ×60 magnification (selected area capturing option) field and Z-stack (0.1 μm slices) settings to create a 3D video. All imaging and video acquisition times and the microscope stage were automatically controlled (XY, XZ and YZ) by an automated perfect focusing system (PFS). The in vivo cilia length measurements and NP localizations in the zebrafish and mouse tissues were performed using the same method.

[2] = system: primary cilia; experiment: In vitro cilia length, acetylated-α-tubulin immunofluorescence (Example 1); type: cell-based; settings: after 16 hours, vs corresponding controls
Description: Immunocytochemistry. For the in vitro cilia length measurements, cells were grown on the Formvar® polymer, as mentioned above. Primary cilia consisting of acetylated microtubule structures were measured by direct immunofluorescence with acetylated-α-tubulin staining with 0, 2, 4, 8, 16, 24 and 32 hours of incubation with different concentrations (0.1-5 μg/mL) of CT-DAu-NPs or CT-PLGA-NPs. Likewise, materials without fenoldopam loading were used as corresponding controls for the CTNDDSs (cCT-DAu-NPs and cCT-PLGA-NPs) and also fenoldopam alone used. The cells were rinsed with sodium cacodylate buffer, fixed with 3% glutaraldehyde in 0.2 M sodium cacodylate buffer for 10 minutes, and permeabilized with 1% Triton-X in sodium cacodylate for 5 min. Acetylated-α-tubulin (1:10,000 dilution, Sigma) and the secondary antibodies were also diluted in 10% FBS to decrease the background florescence; FITC fluorescence secondary antibody (1:1000; Pierce, Inc.) was used. The cells were then washed three times for 5 minutes each with cacodylate buffer and mounted with DAPI (Vector laboratories). Confocal microscopic images were obtained using an inverted Nikon Eclipse Ti confocal microscope.

[3] = system: Tie2Cre⋅Pkd2^flox/flox mice; experiment: Endothelia-specific Pkd2 knockout hypertensive mouse model, 8-week treatment (Example 1); type: in vivo
Description: One-week-old Tie2Cre⋅Pkd2^WT/WT (with cre activation; control group) or Tie2Cre⋅Pkd2^flox/flox (without cre activation; control group), and Tie2Cre⋅Pkd2^flox/flox (with cre activation; experimental group) mice were injected intra-peritoneally with 5 μg/μL tamoxifen every day for five consecutive days. […] The overall process for the preparation of the final nano-formulation for the animal studies included the following steps. The lyophilized antibody conjugated and drug-loaded CT-DAu-NPs or CT-PLGA-NP powders were first brought to the room temperature from a storage at −50° C. […] The formulations were mixed by vortex for 2 minutes followed by filtration of 0.2 μm. […] The mice were treated every 72 hours with different NPs for 8 weeks. Blood pressure from four-week-old mice was taken with the non-invasive tail-cuff method using the CODA system (Kent Scientific). Blood pressure was measured twice daily for the duration of the study after the initial three days of acclimating each mouse to the cuff. At the end of the 12 weeks of treatment, the hematology parameters, including the blood urea nitrogen (BUN) and plasma nitrate/nitrite measurements, were examined. BUN assays were conducted using a calorimetric kit (Arbor Assays). Plasma nitrate/nitrite concentrations were quantified using a nitrate/nitrite assay kit (Cayman). All steps were followed according to the manufacturer's instructions. […] Then, the tissues were dehydrated using buffered ethanol, and xylene. Finally, the tissues were embedded in wax, sectioned (4 μm, Microtome, HM-3555, Thermo Scientific) and were subsequently stained with standard hematoxylin and eosin (H&E). The pathology slices were observed and imaged using a KEYENCE-BZ-X710 microscope. Mouse heart sections were stained with Masson's Trichrome to detect fibrosis using a Masson's Trichrome Stain Kit (Polysciences, Inc.).

[4] = system: LLC-PK1 cells; experiment: Intracellular and ciliary Ca2+ and NO imaging under flow or magnetic field (Example 2); type: cell-based, porcine; settings: 5HT6-mCherry-G-GECO1.0, single cell single cilium
Description: Cells were grown as monolayer on glass-bottomed plates to enable live microscopy imaging. […] For intracellular NO measurements, cells were loaded with 20 μM DAF-FM (Cayman Chemical) for 30 minutes at 37° C. […] Fluid shear stress was then applied to cells through […] peristaltic pumps with an inlet and outlet setup. The fluid was perfused through cell monolayers at a sub-minimal shear stress of 0.5 dyn/cm^2. […] An alnico cylindrical magnet (VWR International, PA) was used to oscillate a primary cilium. This 100-gram AlNiCo magnet produced a permanent magnetic field of 1.35 T. Once a cilium was placed on the specimen holder and in the plane of view, the magnet was mounted on the top of an inverted Nikon Ti-E microscope. The magnet was then mechanically moved with an oscillation frequency of 1.6 Hz. The movement of cilia by the magnetic field was continuously recorded for the duration of the experiment. To examine how much force the magnetic field generated onto a cilium, we calculated the movement of cilia in response to the oscillating magnetic field (Supplement). […] The shear stress ranged from 0.01 to 1.0 dyn/cm^2 and was accurately measured and controlled at all times. […] Approximately 15-20 cilia were analysed for each treatment using different fluorescence filters. […] The GFP/mCherry ratios were also calculated using Nikon tracking software.

For `Oc1ccc(C2CNCCc3c2cc(O)c(O)c3Cl)cc1` (centres unmarked) [Fenoldopam, fenoldopam], the cilia length [1] was “increased the cilia length”, the cilia length [2] was “significantly increased cilia length” and the “cilia length in aorta and heart” value ([3]; 24 or 72 hours after treatment) was “increased by CTNDDS but not fenoldopam”. The “blood urea nitrogen (BUN)” value ([3]; Pkd2 mice) was “could not be corrected”, the plasma nitrate/nitrite ([3]; Pkd2 mice) was “could not be corrected” and the “acute blood pressure and heart rate” value ([3]; Pkd2 mice, 10-minute infusion) was “significantly decreased blood pressure followed by reflex tachycardia”. For the same molecule, the “blood pressure (SBP, MAP)” value ([3]; hypertensive Pkd2 mice, every 3 days for 8 weeks) was “no long-term effect” and the “intraciliary and cytosolic Ca^2+ signalling” value [4] was “induced less of an increase in the intraciliary Ca^2+ signalling”.

From patent US20210259954A1, “CILIA-TARGETING NANOPARTICLES” (Chapman University, priority 2019, published 2021)
